Marks after values point to notes of the source that are not given here.
Tests used:
myocite = details: exposure to hypoxantine and xantine oxidase; cited from earlier work
[1] = tested on: Langendorff-perfused heart; details: attributed to activation of Akt and ERK1/2 pathways; cited from earlier work
[2] = tested on: Chinese hamster ovary (CHO) cells; test: MTT cell viability, protection against H2O2-mediated cytotoxicity in CHO cells; details: for Cytotoxicity CHO (%): 50 μM compound for 2 h, then 1mM H2O2 for 1 h, MTT
reperfused myocardium = details: in vivo I/R injury; cited from earlier work
[3] = tested on: human aortic vascular smooth muscle cells (HSMCs); test: MTT cell viability, protection against H2O2-mediated cytotoxicity in HSMC cells; details: 50 μM compound for 2 h, then 1mM H2O2 for 1 h
[4] = Superoxide radical scavenging by EPR spin trapping; details: PBS pH 7.4
[5] = 1-mM compound in presence of 1-mM DEPMPO
[6] = 100-μM compound in presence of 1-mM DEPMPO

Row | Molecule | protection of CHO cells against H2O2 compared with verapamil (in words) [2] | Cytotoxicity CHO (%) [2] [%] | Cytotoxicity HSMC (%) [3] [%] | Superoxide Scavenging (%) [4, 5] | further results
1 | COc1ccc(CCN(C)CCCC(C#N)(c2ccc(OC)c(OC)c2)C(C)C)cc1OC (stereo not shown) [Compound 1, verapamil] |  |  |  |  | myocite viability (myocite): preserved; oxidative damage during ischemia and reperfusion [1]: decreased oxidative damage
2 | COc1ccc(CCN(C)CCCC(CNC(=O)C2=CC(C)(C)N(O)C2(C)C)(c2ccc(OC)c(OC)c2)C(C)C)cc1OC.Cl (stereo not shown) [Compound 12B] | good protection |  |  |  | 
3 | COc1ccc(CCN(C)CCCC(CNC(=O)C2=CC(C)(C)N(O)C(C)(C)C2)(c2ccc(OC)c(OC)c2)C(C)C)cc1OC.Cl (stereo not shown) [Compound 16B] | good protection |  |  |  | Akt and Bcl-2 levels in reperfused myocardium (reperfused myocardium): enhanced; nitric oxide generation in reperfused myocardium (reperfused myocardium): increased; superoxide production in reperfused myocardium (reperfused myocardium): markedly attenuated
4 | COc1ccc(CCN(C)CCCC(CNC(=O)C2CC(C)(C)N(O)C(C)(C)C2)(c2ccc(OC)c(OC)c2)C(C)C)cc1OC.Cl (stereo not shown) [Compound 17B] | good protection |  |  |  | 
5 | COc1ccc(CCN(CCCC(C#N)(c2ccc(OC)c(OC)c2)C(C)C)CC2=CC(C)(C)NC2(C)C)cc1OC (stereo not shown) [Compound 23A, 2-(3,4-Dimethoxyphenyl)-5-[[2-(3,4-dimethoxyphenyl)ethyl]-(2,2,5,5-tetramethyl-2,5-dihydro-1H-pyrrol-3-ylmethyl)-amino]-2-isopropyl-pentanenitrile] |  | 74.0 ± 3.4 | 64.8 ± 7.1 | 70.6 ± 3.3 ^a % | 
6 | COc1ccc(CCN(CCCC(C#N)(c2ccc(OC)c(OC)c2)C(C)C)CC2=CC(C)(C)N(O)C2(C)C)cc1OC.Cl (stereo not shown) [Compound 23B, 2-(3,4-Dimethoxyphenyl)-5-[[2-(3,4-dimethoxyphenyl)ethyl]-(1-hydroxy-2,2,5,5-tetramethyl-2,5-dihydro-1H-pyrrol-3-ylmethyl)-amino]-2-isopropyl-pentanenitrile HCl Salt] |  | 66.7 ± 3.0 | 58.6 ± 4.8 | 100% | Superoxide Scavenging (%) [4, 6]: 78.1±2.6%
7 | COc1ccc(CCN(CCCC(C#N)(c2ccc(OC)c(OC)c2)C(C)C)CC2=CC(C)(C)NC(C)(C)C2)cc1OC (stereo not shown) [Compound 24A, 2-(3,4-Dimethoxyphenyl)-5-[[2-(3,4-dimethoxyphenyl)ethyl]-(2,2,6,6-tetramethyl-1,2,3,6-tetrahydropyridin-4-ylmethyl)amino]-2-isopropyl-pentanenitrile] |  | 95.3 ± 0.5 | 91.1 ± 0.5 | 68.2 ± 7.6 ^a % | 
8 | COc1ccc(CCN(CCCC(C#N)(c2ccc(OC)c(OC)c2)C(C)C)CC2=CC(C)(C)N(O)C(C)(C)C2)cc1OC.Cl (stereo not shown) [Compound 24B, 2-(3,4-Dimethoxyphenyl)-5-[[2-(3,4-dimethoxyphenyl)ethyl]-(1-hydroxy-2,2,6,6-tetramethyl-1,2,3,6-tetrahydropyridin-4-ylmethyl)amino]-2-isopropyl-pentanenitrile HCl Salt] |  | 64.8 ± 5.6 | 57.2 ± 5.4 | 100% | Superoxide Scavenging (%) [4, 6]: 82.5±2.7%
9 | [4-Cyano-4-(3,4-dimethoxyphenyl)-5-methylhexyl]-[2-(3,4-dimethoxyphenyl)ethyl]-(1-oxyl-2,2,5,5-tetramethyl-2,5-dihydro-1H-pyrrol-3-ylmethyl)methylammonium Iodide Salt Radical [Compound 25] | good protection |  |  | 73.8 ± 3.0 ^a % | 
10 | [4-Cyano-4-(3,4-dimethoxyphenyl)-5-methylhexyl]-[2-(3,4-dimethoxyphenyl)ethyl]-(1-oxyl-2,2,6,6-tetramethyl-1,2,3,6-tetrahydropyridin-4-ylmethyl)methylammonium Iodide Salt Radical [Compound 26] |  |  |  | 48.1 ± 2.7 ^a % | 

Source: paper PMC4596527 (Bioorganic & medicinal chemistry, 2010)
